Measurements: ChEMBL document CHEMBL3044663, “Synthesis and antimicrobial activities of novel bisacridine-1,8-dione derivatives” (2011)
The source made the active and inactive calls. No cut-off for these calls is given here.

What was measured:
Assay type in all cases: functional
[1] = test system: Escherichia coli; experiment: Antibacterial activity against Escherichia coli ATCC 35218 after 24 hr by disk diffusion method; for DIZ: test concentration or dose not given here
[2] = test system: Pseudomonas aeruginosa; experiment: Antibacterial activity against Pseudomonas aeruginosa ATCC 27853 after 24 hr by disk diffusion method; for DIZ: test concentration or dose not given here
[3] = test system: Staphylococcus epidermidis; experiment: Antibacterial activity against Staphylococcus epidermidis Mu 30 after 24 hr by disk diffusion method; note: test concentration or dose not given here
[4] = test system: Salmonella; experiment: Antibacterial activity against Salmonella 21.3 after 24 hr by disk diffusion method; for DIZ: test concentration or dose not given here
[5] = test system: Bacillus subtilis; experiment: Antibacterial activity against Bacillus subtilis RSKK 240 after 24 hr by disk diffusion method; note: test concentration or dose not given here
[6] = test system: Staphylococcus aureus; experiment: Antibacterial activity against Staphylococcus aureus ATCC 25923 after 24 hr by disk diffusion method; note: test concentration or dose not given here
[7] = test system: Shigella sonnei; experiment: Antibacterial activity against Shigella sonnei RSKK 877 after 24 hr by disk diffusion method; for DIZ: test concentration or dose not given here; for diameter of the inhibition zone (DIZ): test concentration or dose not given here
[8] = test system: Saccharomyces cerevisiae; experiment: Antifungal activity against Saccharomyces cerevisiae TP (3-2) after 24 hr by disk diffusion method; note: test concentration or dose not given here
[9] = test system: Candida albicans; experiment: Antifungal activity against Candida albicans 16231 after 24 hr by disk diffusion method; for DIZ: test concentration or dose not given here
[10] = test system: Bacillus cereus; experiment: Antibacterial activity against Bacillus cereus RSKK 863 after 24 hr by disk diffusion method; note: test concentration or dose not given here

Compound	diameter of the inhibition zone (DIZ) [1]	diameter of the inhibition zone (DIZ) [2]	diameter of the inhibition zone (DIZ) [3]	diameter of the inhibition zone (DIZ) [4]	diameter of the inhibition zone (DIZ) [5]	diameter of the inhibition zone (DIZ) [6]	diameter of the inhibition zone (DIZ) [7]	diameter of the inhibition zone (DIZ) [8]	diameter of the inhibition zone (DIZ) [9]	diameter of the inhibition zone (DIZ) [10]	inhibition zone (IZ) [1] [mm]	inhibition zone (IZ) [2] [mm]	inhibition zone (IZ) [4] [mm]	inhibition zone (IZ) [7] [mm]
N#Cc1ccccc1N1C2=C(C(=O)CCC2)C(c2cccc(C3C4=C(CCCC4=O)N(c4ccccc4C#N)C4=C3C(=O)CCC4)c2)C2=C1CCCC2=O	8 mm	14 mm	10 mm	11 mm	inactive	10 mm	10 mm	20 mm	13 mm	inactive	–	–	–	–
GENTAMICIN	–	–	–	–	–	–	–	–	–	–	15	20	10	11
COc1cccc(N2C3=C(C(=O)CCC3)C(c3cccc(C4C5=C(CCCC5=O)N(c5cccc(OC)c5)C5=C4C(=O)CCC5)c3)C3=C2CCCC3=O)c1	14 mm	9 mm	11 mm	12 mm	11 mm	16 mm	10 mm	11 mm	12 mm	inactive	–	–	–	–
CC1(C)CC(=O)C2=C(C1)N(c1ccc(Br)cc1)C1=C(C(=O)CC(C)(C)C1)C2c1ccc(C2C3=C(CC(C)(C)CC3=O)N(c3ccc(Br)cc3)C3=C2C(=O)CC(C)(C)C3)cc1	10 mm	10 mm	10 mm	10 mm	inactive	12 mm	12 mm	16 mm	11 mm	inactive	–	–	–	–
CC1(C)S[C@@H]2[C@H](NC(=O)[C@H](N)c3ccccc3)C(=O)N2[C@H]1C(=O)O [AMPICILLIN]	27 mm	–	–	23 mm	24 mm	24 mm	22 mm	–	–	20 mm	–	–	–	–
CC(=O)N1CCN(c2ccc(OCC3COC(Cn4ccnc4)(c4ccc(Cl)cc4Cl)O3)cc2)CC1 (configuration not stated) [KETOCONAZOLE]	–	–	–	–	–	–	–	24 mm	21 mm	–	–	–	–	–
N#Cc1cccc(N2C3=C(C(=O)CCC3)C(c3cccc(C4C5=C(CCCC5=O)N(c5cccc(C#N)c5)C5=C4C(=O)CCC5)c3)C3=C2CCCC3=O)c1	8 mm	10 mm	inactive	10 mm	inactive	9 mm	12 mm	17 mm	27 mm	inactive	–	–	–	–
Cc1cccc(N2C3=C(C(=O)CCC3)C(c3cccc(C4C5=C(CCCC5=O)N(c5cccc(C)n5)C5=C4C(=O)CCC5)c3)C3=C2CCCC3=O)n1	12 mm	9 mm	8 mm	9 mm	inactive	18 mm	9 mm	17 mm	14 mm	inactive	–	–	–	–
CC1(C)CC(=O)C2=C(C1)N(c1ccc(Cl)cc1)C1=C(C(=O)CC(C)(C)C1)C2c1ccc(C2C3=C(CC(C)(C)CC3=O)N(c3ccc(Cl)cc3)C3=C2C(=O)CC(C)(C)C3)cc1	12 mm	9 mm	7 mm	12 mm	inactive	9 mm	10 mm	14 mm	10 mm	inactive	–	–	–	–
COc1ccccc1N1C2=C(C(=O)CC(C)(C)C2)C(c2cccc(C3C4=C(CC(C)(C)CC4=O)N(c4ccccc4OC)C4=C3C(=O)CC(C)(C)C4)c2)C2=C1CC(C)(C)CC2=O	14 mm	10 mm	13 mm	8 mm	8 mm	9 mm	12 mm	14 mm	15 mm	13 mm	–	–	–	–
CC1(C)CC(=O)C2=C(C1)N(c1ccc(C(=O)O)cc1)C1=C(C(=O)CC(C)(C)C1)C2c1cccc(C2C3=C(CC(C)(C)CC3=O)N(c3ccc(C(=O)O)cc3)C3=C2C(=O)CC(C)(C)C3)c1	10 mm	inactive	11 mm	9 mm	11 mm	inactive	11 mm	13 mm	12 mm	9 mm	–	–	–	–
O=C1CCCC2=C1C(c1cccc(C3C4=C(CCCC4=O)N(c4ccc(C(=O)O)cc4)C4=C3C(=O)CCC4)c1)C1=C(CCCC1=O)N2c1ccc(C(=O)O)cc1	9 mm	10 mm	12 mm	8 mm	8 mm	11 mm	9 mm	inactive	10 mm	inactive	–	–	–	–
CC1(C)CC(=O)C2=C(C1)N(c1cccc(C(=O)O)c1)C1=C(C(=O)CC(C)(C)C1)C2c1cccc(C2C3=C(CC(C)(C)CC3=O)N(c3cccc(C(=O)O)c3)C3=C2C(=O)CC(C)(C)C3)c1	9 mm	9 mm	inactive	11 mm	9 mm	10 mm	10 mm	16 mm	16 mm	8 mm	–	–	–	–
CC1(C)CC(=O)C2=C(C1)N(c1ccccc1C#N)C1=C(C(=O)CC(C)(C)C1)C2c1cccc(C2C3=C(CC(C)(C)CC3=O)N(c3ccccc3C#N)C3=C2C(=O)CC(C)(C)C3)c1	12 mm	9 mm	9 mm	9 mm	inactive	12 mm	10 mm	14 mm	14 mm	inactive	–	–	–	–
COc1cccc(N2C3=C(C(=O)CC(C)(C)C3)C(c3cccc(C4C5=C(CC(C)(C)CC5=O)N(c5cccc(OC)c5)C5=C4C(=O)CC(C)(C)C5)c3)C3=C2CC(C)(C)CC3=O)c1	10 mm	7 mm	inactive	inactive	inactive	inactive	12 mm	inactive	inactive	13 mm	–	–	–	–
CC1(C)CC(=O)C2=C(C1)N(c1cccc(C#N)c1)C1=C(C(=O)CC(C)(C)C1)C2c1cccc(C2C3=C(CC(C)(C)CC3=O)N(c3cccc(C#N)c3)C3=C2C(=O)CC(C)(C)C3)c1	13 mm	8 mm	8 mm	10 mm	inactive	10 mm	9 mm	14 mm	16 mm	inactive	–	–	–	–
COc1ccccc1N1C2=C(C(=O)CCC2)C(c2cccc(C3C4=C(CCCC4=O)N(c4ccccc4OC)C4=C3C(=O)CCC4)c2)C2=C1CCCC2=O	inactive	inactive	inactive	inactive	inactive	inactive	inactive	inactive	inactive	inactive	–	–	–	–
O=C1CCCC2=C1C(c1cccc(C3C4=C(CCCC4=O)N(c4cccc(C(=O)O)c4)C4=C3C(=O)CCC4)c1)C1=C(CCCC1=O)N2c1cccc(C(=O)O)c1	12 mm	9 mm	inactive	11 mm	9 mm	inactive	inactive	11 mm	14 mm	8 mm	–	–	–	–
